# Reference: US11453668B2, “JAK inhibitors containing a 4-membered heterocyclic amide” (THERAVANCE BIOPHARMA R&D IP, LLC, priority 2017, dated 2022)
# Assays:
# [1] = test system: IL-5 mediated survival of human eosinophils; experiment: IL-5 mediated eosinophil survival assay; assay type: cell-based
# Procedure: The potency of the test compound for IL-5 mediated eosinophil survival was measured in human eosinophils isolated from human whole blood (AllCells). Because IL-5 signals through JAK, this assay provides a measure of JAK cellular potency.
# Human eosinophils were isolated from fresh human whole blood (AllCells) of healthy donors. Blood was mixed with 4.5% Dextran (Sigma-Aldrich) in a 0.9% sodium chloride solution (Sigma-Aldrich). Red blood cells were left to sediment for 35 minutes. The leukocyte rich upper layer was removed and layered over Ficoll-Paque (GE Healthcare) and centrifuged at 600 g for 30 minutes. The plasma and mononuclear cell layers were removed before the granulocyte layer was lysed with water to remove any contaminating red blood cells. […] Purity was analyzed using a LSRII flow cytometer (BD Biosciences). […]
# After cytokine stimulation, cells were centrifuged at 300 g for 5 min and washed twice with cold DPBS (Life Technologies). To access viability and apoptosis, cells were incubated with Propidium Iodide (Thermo Fisher Scientific) and APC Annexin V (BD Biosciences) and analyzed using a LSRII flow cytometer (BD Biosciences). IC50 values were determined from analysis of the viability curves of percent cell viability vs compound concentration. Data are expressed as pIC50 (negative decadic logarithm IC50 ) values.
# [2] = test system: IL-2/anti-CD3 stimulated IFNγ in human PBMCs; experiment: Inhibition of IL-2/anti-CD3 stimulated IFNγ in human PBMCs; assay type: cell-based
# Procedure: The potency of the test compound for inhibition of interleukin-2 (IL-2)/anti-CD3 stimulated interferon gamma (IFNγ) was measured in human peripheral blood mononuclear cells (PBMCs) isolated from human whole blood (Stanford Blood Center). Because IL-2 signals through JAK, this assay provides a measure of JAK cellular potency.
# (1) Human peripheral blood mononuclear cells (PBMC) were isolated from human whole blood of healthy donors using a ficoll gradient. Cells were cultured in a 37° C., 5% CO2 humidified incubator in RPMI (Life Technologies) supplemented with 10% Heat Inactivated Fetal Bovine Serum (FBS, Life Technologies), 2 mM Glutamax (Life Technologies), 25 mM HEPES (Life Technologies) and 1X Pen/Strep (Life
# Technologies). Cells were seeded at 200,000 cells/well in media (50 μL) and cultured for 1 h. Compounds were serially diluted in DMSO and then diluted another 500-fold (to a 2× final assay concentration) in media. […]
# (2) After cytokine stimulation, cells were centrifuged at 500 g for 5 min and supernatants removed and frozen at −80° C. To determine the inhibitory potency of the test compound in response to IL-^2/anti-CD3, supernatant IFNγ concentrations were measured via ELISA (R&D Systems). IC50 values were determined from analysis of the inhibition curves of concentration of IFNγ vs compound concentration. Data are expressed as pIC50 (negative decadic logarithm IC50) values.
# [3] = test system: IL-6 stimulated STAT3 phosphorylation in CD3+ T cells; experiment: Inhibition of IL-6 stimulated pSTAT3 in CD3+ T cells; assay type: cell-based, human
# From the text: A protocol analogous to that of Assay 10 was used to determine the potency of the test compound for inhibition of interleuken-6 (IL-6) stimulated STAT3 phosphorylation. An Alexa Fluor 647 conjugated anti-pSTAT3 antibody (pY705, Clone 4/P, BD Biosciences) was used to detect STAT3 phosphorylation.
compound,measurement,setting,value
"CCc1cc(O)c(F)cc1-c1ccc2c(-c3nc4c([nH]3)CN(C(C)C)[C@H](C(=O)N3CC(N(C)C)C3)C4)n[nH]c2c1 [Example 2, (S)-(3-(dimethylamino)azetidin-1-yl)(2-(6-(2-ethyl-5-fluoro-4-hydroxyphenyl)-1H-indazol-3-yl)-5-isopropyl-4,5,6,7-tetrahydro-3H-imidazo [4,5-c]pyridin-6-yl)methanone]",inhibition of IL-5 mediated human eosinophil survival,[1],potently inhibit
same,inhibition of anti-CD3 and IL-2 induced release of IFNγ from activated human peripheral blood-isolated T cells,[2],inhibit
same,inhibition of IL-6 signaling,[3],inhibit IL-6 signaling
